Starred links: 1 amine or outer side, 2 acyl side, 3 side chain; linkers in the order of their positions; H or OH if unused. Non-standard residues stand in square brackets, D forms with d. Residues, ends and D or L forms follow the SMILES beside them. ξ: configuration not given here. Leu(5,5,5,5',5',5'-F6) = N[C@@H](CC(C(F)(F)F)C(F)(F)F)C(=O)O; ξBip(2'-Et-4'-OMe) = CCc1cc(OC)ccc1-c1ccc(CC(N)C(=O)O)cc1; X1 = O=C(C(CCCc1ccc(C(F)(F)F)cc1F)N[*:1])[*:2]; ξbishPhe(2-F) = NC(CCCc1ccccc1F)C(=O)O; ξαMePhe(2-F) = CC(N)(Cc1ccccc1F)C(=O)O; Aib = CC(C)(N)C(=O)O
Legend:
[1] = Stability in simulated intestinal fluid; assay type: in vitro ADME; details: 2 μM peptidomimetic, simulated intestinal fluid pH 7.5, 37° C.
Procedure: (§1) Reactions were terminated by the addition of TFA/H2O (15 mL, 10% (v/v)). […] The column was equilibrated with TFA/H20, at a flow rate of 1 mL/min.

DPP IV = DPP IV (Homo sapiens, UniProt P27487); assay: Stability against DPP IV enzyme; assay type: in vitro ADME; details: 37° C.; for % degradation of peptidomimetics in 24 h when incubated with DPP-IV enzyme: 2 μM peptidomimetic; for half-life at 2 μM: DPP IV enzyme, pH 7.8, 2 μM peptidomimetic, read-out: half-life (t1/2) when incubated with DPP-IV enzyme
Procedure: as §1

[2] = Stability in simulated gastric fluid; assay type: in vitro ADME; details: 2 μM peptidomimetic, simulated gastric fluid pH 1.5, 37° C.
Procedure: as §1

[3] = Stability in liver microsomes; assay type: in vitro ADME; details: 2 μM peptidomimetic, human liver microsomes, 37° C.; for half-life at 2 μM: pH 7.8, read-out: half-life (t1/2) when incubated with liver microsomes
Procedure: as §1

Human GLP-1 receptor = biological target: T1, Human GLP-1 receptor (Homo sapiens, UniProt P43220); assay: In vitro Human GLP-1 R agonist activity (cyclic AMP determination) in CHO/human GLP1R cells; assay type: cell-based
T1 construct: The full-length cDNA was cloned in pcDNA3.1(+); expressed in transfected cells
Procedure: The novel peptidomimetics were screened for Human GLP-1 receptor (HGLP-1 R) agonist activity (in vitro), using the cAMP cell-based assay, in stably transfected CHO/human GLP1R cells. […] CHO cells were grown in Ham's F12 medium containing L-Glutamine (2 mM), HEPES (25 mM), NaHCO3 (1.1 g/L) and supplemented with NewBorn Calf Serum (NBCS; 10%), Penicillin (50 U/ml (v/v)) and Streptomycin (50 ug/ml (v/v)). Cells were split every 3 days 1:8.
The cDNA encoding the human GLP-1 receptor was isolated by RT-PCR according to standard protocol. The full-length cDNA was cloned in pcDNA3.1(+). […] Clones expressing the receptor were generated by G418 (800 μg/ml active, Sigma) selection. The stable clones were thereafter maintained at 500 ug/ml (G418). The selected clone was used between passages 9-25 for cAMP assays.
The trypsin was inactivated using Ham's F12 medium containing 10% NBCS and the cells were suspended in 2 ml of complete medium. […] The medium was aspirated off from the 12 well plate and the cells were washed once using Ham's F12 (plain). […] The cells were incubated with the test compounds for 30 min in humidified atmosphere and 37° C. After the incubation, the medium was removed and cells were washed once with plain Ham's F12. Subsequently, the cells were lysed by adding 500 ul of ice cold 0.1 N HCl to each well and shaking for 30 minutes at 200 rpm. The cells were then scrapped, the lysate was collected in micro centrifuge tubes and centrifuged at 12000 rpm for 10 min to remove the debris. 300 ul of supernatant from each micro-centrifuge tube was then removed into a glass tube and dried under N2 for 30 min, for cAMP estimation. The total cAMP was estimated from the sample according to the manufacturer's protocol using Cyclic AMP immunoassay kit (R&D systems, Minneapolis. MN). The remaining supernatant is used to determine the protein concentration using micro BCA (Sigma). Data is calculated as percent of control (Vehicle: water) and expressed as Mean±SD.

[4] = Stability in human plasma; assay type: in vitro ADME; details: 2 μM peptidomimetic, pooled human plasma, 37° C.; for half-life at 2 μM: pH 7.8, read-out: half-life (t1/2) when incubated with human plasma
Procedure: as §1

human glucagon receptor = biological target: T2, human glucagon receptor (Homo sapiens, UniProt P47871); assay: In vitro human glucagon antagonist activity (inhibition of cAMP production) in CHO/human glucagon R cells; assay type: cell-based; details: with saturated concentration of glucagon peptide
T2 construct: The full-length cDNA was cloned in pcDNA3.1 (Invitrogen); expressed in transfected cells
T2 sequence (P47871 26-477): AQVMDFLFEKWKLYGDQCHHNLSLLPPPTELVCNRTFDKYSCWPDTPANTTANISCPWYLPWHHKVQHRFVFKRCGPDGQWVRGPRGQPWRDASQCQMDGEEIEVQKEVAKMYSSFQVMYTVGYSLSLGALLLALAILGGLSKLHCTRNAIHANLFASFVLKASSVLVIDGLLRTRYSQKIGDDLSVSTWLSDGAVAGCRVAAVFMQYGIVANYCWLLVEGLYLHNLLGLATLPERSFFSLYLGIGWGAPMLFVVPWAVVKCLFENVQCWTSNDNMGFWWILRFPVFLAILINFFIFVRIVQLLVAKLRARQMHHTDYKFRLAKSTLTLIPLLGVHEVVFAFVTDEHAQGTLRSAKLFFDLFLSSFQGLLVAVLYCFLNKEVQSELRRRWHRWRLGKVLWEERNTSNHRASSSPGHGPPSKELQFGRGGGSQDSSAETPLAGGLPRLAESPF

T1 sequence (P43220 24-463): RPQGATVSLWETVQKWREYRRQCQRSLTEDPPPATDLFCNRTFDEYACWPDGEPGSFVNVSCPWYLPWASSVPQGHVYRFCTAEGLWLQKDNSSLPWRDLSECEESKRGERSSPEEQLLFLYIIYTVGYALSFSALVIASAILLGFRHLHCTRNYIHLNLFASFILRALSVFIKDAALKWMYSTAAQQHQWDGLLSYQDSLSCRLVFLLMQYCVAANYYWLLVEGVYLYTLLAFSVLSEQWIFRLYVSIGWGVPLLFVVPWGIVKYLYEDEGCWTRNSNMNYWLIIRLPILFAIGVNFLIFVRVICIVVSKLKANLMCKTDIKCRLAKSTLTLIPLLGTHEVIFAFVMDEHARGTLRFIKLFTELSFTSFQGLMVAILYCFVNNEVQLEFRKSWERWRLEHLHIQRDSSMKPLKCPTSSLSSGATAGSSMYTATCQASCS
Chain of DPP IV (P27487 whole entry, species assumed): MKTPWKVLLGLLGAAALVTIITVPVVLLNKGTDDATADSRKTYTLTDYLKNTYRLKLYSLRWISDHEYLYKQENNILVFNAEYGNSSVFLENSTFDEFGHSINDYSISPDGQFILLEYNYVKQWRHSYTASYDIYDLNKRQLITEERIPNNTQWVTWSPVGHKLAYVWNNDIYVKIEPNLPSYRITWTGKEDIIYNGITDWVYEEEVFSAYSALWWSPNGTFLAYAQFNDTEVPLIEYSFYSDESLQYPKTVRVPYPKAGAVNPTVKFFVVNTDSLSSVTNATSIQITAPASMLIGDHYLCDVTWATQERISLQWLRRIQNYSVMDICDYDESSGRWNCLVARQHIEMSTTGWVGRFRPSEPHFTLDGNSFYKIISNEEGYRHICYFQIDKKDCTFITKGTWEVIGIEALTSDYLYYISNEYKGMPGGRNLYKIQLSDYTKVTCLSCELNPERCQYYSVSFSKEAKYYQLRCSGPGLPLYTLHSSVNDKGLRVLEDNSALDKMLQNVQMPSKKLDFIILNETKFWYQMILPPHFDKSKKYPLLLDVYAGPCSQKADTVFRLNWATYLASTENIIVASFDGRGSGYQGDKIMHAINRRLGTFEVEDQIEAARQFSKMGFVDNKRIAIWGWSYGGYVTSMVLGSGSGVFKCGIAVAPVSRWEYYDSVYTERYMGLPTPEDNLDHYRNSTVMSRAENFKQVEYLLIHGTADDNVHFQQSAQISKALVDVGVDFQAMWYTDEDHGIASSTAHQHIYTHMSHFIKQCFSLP

| Structure (SMILES) | half-life (t1/2) when incubated with simulated intestinal fluid [1] | % degradation of peptidomimetics in 24 h when incubated with simulated intestinal fluid [1] [%] | % degradation of peptidomimetics in 24 h when incubated with DPP-IV enzyme (DPP IV) [%] | half-life at 2 μM (DPP IV) [h] | half-life (t1/2) when incubated with simulated gastric fluid [2] | % degradation of peptidomimetics in 24 h when incubated with simulated gastric fluid [2] [%] | % degradation of peptidomimetics in 24 h when incubated with liver microsomes [3] [%] | half-life at 2 μM [3] [h] | Human GLP-1 R activity (cAMP release), % activity with respect to control (Human GLP-1 receptor; 1 nM test compound) [%] | Human GLP-1 R activity (cAMP release), % activity with respect to control (Human GLP-1 receptor; 10 nM test compound) [%] | Human GLP-1 R activity (cAMP release), % activity with respect to control (Human GLP-1 receptor; 100 nM test compound) [%] | Human GLP-1 R activity (cAMP release), % activity with respect to control (Human GLP-1 receptor; 1 μM test compound) [%] | Human GLP-1 R activity (cAMP release), % activity with respect to control (Human GLP-1 receptor; 10 μM test compound) [%] | % degradation of peptidomimetics in 24 h when incubated with human plasma [4] [%] | half-life at 2 μM [4] [h] | Human Glucagon receptor antagonistic activity shown as inhibition of cAMP production of Glucagon peptide (human glucagon receptor; 1 nM test compound) [pmol/ml/μg prt] | Human Glucagon receptor antagonistic activity shown as inhibition of cAMP production of Glucagon peptide (human glucagon receptor; 10 nM test compound) [pmol/ml/μg prt] | Human Glucagon receptor antagonistic activity shown as inhibition of cAMP production of Glucagon peptide (human glucagon receptor; 100 nM test compound) [pmol/ml/μg prt] | Human Glucagon receptor antagonistic activity shown as inhibition of cAMP production of Glucagon peptide (human glucagon receptor; 1 μM test compound) [pmol/ml/μg prt] | Human Glucagon receptor antagonistic activity shown as inhibition of cAMP production of Glucagon peptide (human glucagon receptor; 10 μM test compound) [pmol/ml/μg prt] | also measured |
| --- | --- | --- | --- | --- | --- | --- | --- | --- | --- | --- | --- | --- | --- | --- | --- | --- | --- | --- | --- | --- | --- |
| CCc1cc(OC)ccc1-c1ccc(CC(NC(=O)[C@H](CC(=O)O)NC(=O)[C@H](CO)NC(=O)[C@@H](NC(=O)[C@H](Cc2ccccc2)NC(=O)[C@@H](NC(=O)CNC(=O)[C@H](CCC(N)=O)NC(=O)[C@H](C)NC(=O)[C@@H](N)Cc2c[nH]cn2)[C@@H](C)O)[C@@H](C)O)C(=O)NC(CCCc2ccc(Cl)cc2C)C(N)=O)cc1 (single isomer, unassigned) [compound 16] | (6) h | 40 | 70 | 9 | (8) h | 14 | 78 | 1 | 99 ± 0.11 | 99 ± 0.13 | 99 ± 0.16 | 99 ± 0.06 | 99 ± 0.10 | 71 | 8 | – | – | – | – | – | – |
| CCc1cc(OC)ccc1-c1ccc(CC(NC(=O)[C@H](CC(=O)O)NC(=O)[C@H](CO)NC(=O)[C@@H](NC(=O)[C@H](Cc2ccccc2)NC(=O)[C@@H](NC(=O)CNC(=O)[C@H](CCC(N)=O)NC(=O)C(C)(C)NC(=O)[C@@H](N)Cc2c[nH]cn2)[C@@H](C)O)[C@@H](C)O)C(=O)NC(CCCc2ccc(OC)cc2Cl)C(N)=O)cc1 (single isomer, unassigned) [compound 68] | (6) h | 46 | 74 | 9 | (8) h | 12 | 83 | 1 | 39 ± 0.11 | 80 ± 0.09 | 88 ± 0.06 | 96 ± 0.14 | 99 ± 0.19 | 75 | 8 | – | – | – | – | – | – |
| CCc1cc(OC)ccc1-c1ccc(CC(NC(=O)[C@H](CC(=O)O)NC(=O)[C@H](CO)NC(=O)[C@@H](NC(=O)[C@H](Cc2ccccc2)NC(=O)[C@@H](NC(=O)CNC(=O)[C@H](CCC(N)=O)NC(=O)C(C)(C)NC(=O)[C@@H](N)Cc2c[nH]cn2)[C@@H](C)O)[C@@H](C)O)C(=O)NC(CCCc2ccc(C(F)(F)F)cc2F)C(N)=O)cc1 (some centres unmarked) [compound 65] (H-H[Aib]QGTFTSD[ξBip(2'-Et-4'-OMe)][X1]-NH2) | (6) h | 43 | 76 | 9 | (8) h | 14 | 80 | 1 | – | – | – | – | – | 78 | 8 | 10 ± 0.12 | 8 ± 0.02 | 6 ± 0.04 | 4 ± 0.05 | 1 ± 0.02 | – |
| CCc1cc(OC)ccc1-c1ccc(CC(NC(=O)[C@H](CC(=O)O)NC(=O)[C@H](CO)NC(=O)[C@@H](NC(=O)C(C)(Cc2ccccc2F)NC(=O)[C@@H](NC(=O)CNC(=O)[C@H](CC(C(F)(F)F)C(F)(F)F)NC(=O)C(C)(C)NC(=O)[C@H](Cc2c[nH]cn2)NC(C)=O)[C@@H](C)O)[C@@H](C)O)C(=O)NC(CCCc2ccccc2F)C(N)=O)cc1 (some centres unmarked) [compound 212] (Ac-H[Aib][Leu(5,5,5,5',5',5'-F6)]GT[ξαMePhe(2-F)]TSD[ξBip(2'-Et-4'-OMe)][ξbishPhe(2-F)]-NH2) | – | 100 | 77 | – | – | 100 | 100 | 0.5 | – | – | – | – | – | 80 | – | 10 ± 0.12 | 8 ± 0.02 | 6 ± 0.04 | 4 ± 0.05 | 1 ± 0.02 | half-life at 2 μM ([1]; read-out: half-life (t1/2) when incubated with simulated intestinal fluid): 0.5 h; half-life at 2 μM ([2]; read-out: half-life (t1/2) when incubated with simulated gastric fluid): 0.5 h; half-life (t1/2) when incubated with human plasma [4]: (9) h |

From patent publication US8883963B2 (Cadila Healthcare Limited, priority 2007, dated 2014)
